Experimental data: PMC5021161 (Environmental and Molecular Mutagenesis, 2016)
Read-outs that look alike come from different tables or passages of the source.

Experiments:
ATF3 = assay type: cell-based, human; details: 5% ethanol S9, 4 hr + 3-4 hr recovery
CDKN1A = assay type: cell-based, human; details: 5% ethanol S9, 4 hr + 3-4 hr recovery
GADD45A = assay type: cell-based, human; details: 5% ethanol S9, 4 hr + 3-4 hr recovery
TK6 cells [1] = details: for % Relative Survival: 5% ethanol S9, 4 hr + 20 hr recovery
TK6 cells [2] = details: 5% ethanol S9, 4 hr + 20 hr recovery
TK6 cells [3] = details: for % MN: 5% ethanol S9, 4 hr + 20 hr recovery
[4] = tested on: TGx‐28.65 biomarker genes; details: 5% ethanol S9, 4 hr + 3-4 hr recovery
bacteria = details: ref NTP, 1993; cited from earlier work
mammalian cells = details: Chinese hamster ovary cells; ref NTP, 1993; cited from earlier work
[5] = B6C3F1 mouse bone marrow cells; ref NTP, 1993; cited from earlier work
[6] = 2012, cited from earlier work
[7] = rats and mice; ref NTP, 1993; cited from earlier work

SMILES: c1ccoc1 [Furan]
- ATF3 fold change vs vehicle control (+S9) (ATF3; 2 mM): 2.3 fold change
- ATF3 fold change vs vehicle control (+S9) (ATF3; 3 mM): 3.1 fold change
- ATF3 fold change vs vehicle control (+S9) (ATF3; 5 mM): 5.4 fold change
- CDKN1A fold change vs vehicle control (+S9) (CDKN1A; 2 mM): 3.2 fold change
- CDKN1A fold change vs vehicle control (+S9) (CDKN1A; 3 mM): 5.3 fold change
- CDKN1A fold change vs vehicle control (+S9) (CDKN1A; 5 mM): 9.8 fold change
- GADD45A fold change vs vehicle control (+S9) (GADD45A; 2 mM): 1.4 fold change
- GADD45A fold change vs vehicle control (+S9) (GADD45A; 3 mM): 1.4 fold change
- GADD45A fold change vs vehicle control (+S9) (GADD45A; 5 mM): 2.4 fold change
- % Relative Survival (TK6 cells [1]; 2 mM): 80.06%
- % Relative Survival (TK6 cells [1]; 3 mM): 64.52%
- % Relative Survival (TK6 cells [1]; 5 mM): 48.45%
- effect on RS, range finder (TK6 cells [1]; 2% Aroclor‐induced S9, data not shown): did not cause a decline in RS
- % Apoptotic cells (TK6 cells [2]; 2 mM): 7.07%
- % Apoptotic cells (TK6 cells [2]; 3 mM): 8.40%
- % Apoptotic cells (TK6 cells [2]; 5 mM): 15.26%
- % MN (TK6 cells [3]; 2 mM): 1.57%
- % MN (TK6 cells [3]; 3 mM): 1.77%
- % MN (TK6 cells [3]; 5 mM): 2.78%
- clastogenicity (analysis of MN) (TK6 cells [3]; 5% ethanol‐induced S9): clastogenic at high concentrations
- statistically significant % MN increase relative to controls (TK6 cells [3]; for at least one concentration, definitive study): over twofold
- Dendogram TGx‐28.65 ([4]; 2 mM): +
- NSC TGx‐28.65 ([4]; 2 mM): +
- PCA TGx‐28.65 ([4]; 2 mM): +
- Dendogram TGx‐28.65 ([4]; 3 mM): +
- NSC TGx‐28.65 ([4]; 3 mM): +
- PCA TGx‐28.65 ([4]; 3 mM): +
- Dendogram TGx‐28.65 ([4]; 5 mM): +
- NSC TGx‐28.65 ([4]; 5 mM): +
- PCA TGx‐28.65 ([4]; 5 mM): +
- Ames test (bacteria): negative
- chromosomal aberrations (mammalian cells): causes chromosomal aberrations
- chromosomal aberrations [5]: causes chromosomal aberrations
- liver DNA strand breaks, comet assay ([6]; Big Blue rats, ref McDaniel et al.): DNA damage at high doses
- DNA strand breaks by the comet assay ([6]; F344 rats at cancer‐causing doses, ref Ding et al.): near‐linear dose‐dependent increase in DNA strand breaks
- carcinogenicity [7]: causes liver cancer
